These results are taken from US20030206893A1, “Cell proliferating agents” (priority 2002, published 2003).

Counter-ions that a name gives are not always drawn.

Assay [1] relates to human skin fibroblast cell line (normal human dermal fibroblasts, neonatal). Put plainly: Proliferative response of plant growth factors on human skin fibroblast cell line, 96-well assay (Cell Titer 96 Aqueous One, absorbance 490 nm). The class given is cell-based. As to conditions: 28 hours incubation, serum-free DMEM.
Description: The proliferative response of plant growth factors on the human skin fibroblast cell line (Clonetics, Walkersville, Md., normal human dermal fibroblasts, neonatal, Catalog No. CC-2509) was determined in a 96-well assay system using serum-free medium as a control.
Stock solution of gibberellic acid (Sigma Chemical Company, St. Louis, Mo.) (0.001 M) was prepared in water and then diluted with serum-free Dulbecco's Modified Eagle's Medium (DMEM, Sigma Chemical Co., St. Louis, Mo.) to 10^−5, (“GA2”) and 10^−6 (“GA1”) M solutions. Cells were seeded into 96 well plates at a concentration of 3×10^3 cells in 100 microliters of DMEM containing 10 percent fetal bovine serum (FBS, Sigma Chemical Co., St. Louis, Mo.). Plates were incubated for 24 hours at 37° C. in a humidified, 5 percent CO2 atmosphere. After incubation, the medium was aspirated and the wells were rinsed twice with 100 microliters of serum-free DMEM. The final rinse was aspirated and 100 microliters of the 10^−5 and 10^−6 M of each solution was added to 10 wells. In addition, 100 microliters of vehicle (serum-free DMEM) was added to 10 wells as control. All wells were incubated for 28 hours at 37° C. in a humidified, 5 percent CO2 atmosphere. After incubation, 20 microliters of Cell Titer 96 Aqueous One Solution Reagent (Promega, Corp., Madison, Wis.) was added to all wells. The plates were swirled gently and placed back in the incubator for 45 minutes and spectrophotometric absorbance was read at 490 nm.
Statistical analysis was done by using one-way ANOVA.
Kinetin (Spectrum Chemical, CA) 1 mg/ml aqueous solution as supplied by the Company was used as a stock solution. Further dilutions were made with serum-free Dulbecco's Modified Eagle's Medium (DMEM, Sigma Chemical Co., St. Louis, Mo.) to 10^−5, (“K2”) and 10^−6 (“K1”) M solutions. Cells were seeded into 96 well plates at a concentration of 3×10^3 cells in 100 microliters of DMEM containing 10 percent fetal bovine serum (FBS, Sigma Chemical Co., St. Louis, Mo.). Plates were incubated for 24 hours at 37° C. in a humidified, 5 percent CO2 atmosphere. After incubation, the medium was aspirated and the wells were rinsed twice with 100 microliters of serum-free DMEM. The final rinse was aspirated and 100 microliters of the 10^−5 and 10^−6 M of each solution was added to 10 wells. In addition, 100 microliters of vehicle (serum-free DMEM) was added to 10 wells as control. All wells were incubated for 28 hours at 37° C. in a humidified, 5 percent CO2 atmosphere. After incubation, 20 microliters of Cell Titer 96 Aqueous One Solution Reagent (Promega, Corp., Madison, Wis.) was added to all wells. The plates were swirled gently and placed back in the incubator for 45 minutes and spectrophotometric absorbance was read at 490 nm. […]
The test system of another assay is human fibroblasts. Particulars: reported by S. I. Rattan, Biochem Biophys Res. Comm., 201, 665-672, 1994; cited from earlier work.
[2] abbreviates: 10^-5 and 10^-6 M solutions, 3x10^3 cells seeded.
Setting [3] is: 10^-4, 10^-5 and 10^-6 M solutions, 2x10^3 cells seeded.

`C=C1C[C@]23C[C@@]1(O)CC[C@H]2[C@@]12C=C[C@H](O)[C@@](C)(C(=O)O1)[C@H]2[C@@H]3C(=O)O` [gibberellic acid]: the “effect on cell proliferation versus serum-free medium control (one-way ANOVA)” value in assay [1] (setting [2]) is recorded as “good cell proliferating agent”. For `CC/C=C\C[C@H]1C(=O)CC[C@@H]1CC(=O)O` [jasmonic acid], in assay [1] (setting [3]), the “effect on cell proliferation versus serum-free medium control (one-way ANOVA)” value is “strong cell proliferating agent”.

Regarding `c1coc(CNc2ncnc3[nH]cnc23)c1` [kinetin], the “effect on cell proliferation versus serum-free medium control (one-way ANOVA)” value in assay [1] (setting [2]) is on record as “good cell proliferating agent”. Further, in the assay on human fibroblasts, the “effect on onset of aging characteristics in human fibroblasts” value is on record as “delay the onset of aging characteristics”.

`C/C(=C\CNc1ncnc2[nH]cnc12)CO` [zeatin, trans-zeatin HCl]: the “effect on cell proliferation versus serum-free medium control (one-way ANOVA)” value in assay [1] (setting [3]) is listed as “good cell proliferating agent”.
